Numbering of substitutions follows the chain as printed. Non-standard residues stand in square brackets, D forms with d. Residues, ends and D or L forms follow the SMILES beside them. No end group written: not given here. pS = N[C@@H](COP(=O)(O)O)C(=O)O
How the values were obtained:
TNPO3 C511A = biological target: T1, TNPO3 C511A (Homo sapiens, UniProt Q9Y5L0, C511A); assay: ITC, ligand titrated into TNPO3 C511A; type: binding; settings: for TNPO3 binding Kd, outcome in words: TNPO3 C511A, two replicates
T1 construct: full-length (FL) WT human TNPO3 were generated by synthesizing codon-optimized DNA fragments; His6 (N, cleaved yes); protein A (N, cleaved yes); made in house; host or cells: Escherichia coli BL21-(DE3) Star
T1 sequence (Q9Y5L0 1-923 C511A): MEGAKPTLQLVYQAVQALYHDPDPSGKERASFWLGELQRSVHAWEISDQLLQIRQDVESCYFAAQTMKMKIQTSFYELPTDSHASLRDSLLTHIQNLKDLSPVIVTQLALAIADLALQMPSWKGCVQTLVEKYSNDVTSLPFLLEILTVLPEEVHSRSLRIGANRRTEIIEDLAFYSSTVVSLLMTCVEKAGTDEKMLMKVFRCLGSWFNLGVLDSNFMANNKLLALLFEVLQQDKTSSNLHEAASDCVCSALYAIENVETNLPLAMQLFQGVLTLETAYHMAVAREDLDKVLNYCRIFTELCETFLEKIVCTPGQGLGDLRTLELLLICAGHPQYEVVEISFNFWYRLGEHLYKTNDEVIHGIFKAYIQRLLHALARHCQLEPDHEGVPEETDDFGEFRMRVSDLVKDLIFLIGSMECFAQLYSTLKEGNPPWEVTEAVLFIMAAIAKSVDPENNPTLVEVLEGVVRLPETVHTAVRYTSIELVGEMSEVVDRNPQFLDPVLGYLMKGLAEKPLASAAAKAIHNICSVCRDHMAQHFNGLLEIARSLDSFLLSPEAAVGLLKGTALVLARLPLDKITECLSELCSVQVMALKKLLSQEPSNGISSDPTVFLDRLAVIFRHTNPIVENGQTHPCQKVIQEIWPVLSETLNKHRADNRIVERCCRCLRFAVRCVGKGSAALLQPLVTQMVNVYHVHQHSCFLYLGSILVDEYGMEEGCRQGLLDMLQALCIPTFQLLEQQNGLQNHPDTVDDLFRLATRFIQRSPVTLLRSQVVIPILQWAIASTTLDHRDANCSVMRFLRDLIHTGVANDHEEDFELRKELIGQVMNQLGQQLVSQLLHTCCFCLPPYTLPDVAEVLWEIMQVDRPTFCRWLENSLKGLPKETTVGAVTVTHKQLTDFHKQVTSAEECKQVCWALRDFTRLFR
Description: (§1) ITC has been performed by a Malvern Microcal VP-ITC at 25 °C for all binding studies. Samples have been dissolved in Tris buffer containing 50 mM Tris–HCl, 150 mM NaCl, 2 mM TCEP, and 0.04% NaN3 at pH 7.5. Binding studies of CIRBP^RSY and SRSF1^RS were performed with TNPO3 WT, and studies of CIRBP (157–172) and its mutants/phosphorylations were performed with TNPO3 C511A, respectively. Injection has been carried out by a syringe containing ligand solution of 100 μM, which adds ligand step-wise into the cell containing 10 μM TNPO3 during 28 injections of 10 μL each. Data analysis, curve fitting, and calculation of Kd, ΔH, and ΔS have been carried out using Origin-based 7.0 software provided by the manufacturer. All replicated ITC data are shown in Supplementary Fig. 6 and Supplementary Table 1.

TNPO3 WT = biological target: T2, TNPO3 WT (Homo sapiens, UniProt Q9Y5L0); assay: ITC, ligand titrated into TNPO3 WT; type: binding; settings: for ΔS: ITC, TNPO3 WT
T2 sequence (Q9Y5L0 1-923): T1 sequence (Q9Y5L0 1-923 C511A) with A511C
Description: as §1

TNPO3 = assay: NMR binding studies with TNPO3 (1H-15N HSQC, 1H-13C HMQC, 1H 1D, STD); set-up: species or system human; settings: for line broadening of peptide 1H signals upon addition of TNPO3 (1H NMR): 50 µM peptide, stoichiometric amount of TNPO3
Description: All NMR studies for TNPO3 were carried out using the wild type protein. Protein samples for ^1H-^13C HMQC were prepared at a concentration of 100 μM and equilibrated in a buffer containing 50 mM Tris–HCl, pH 6.7, 150 mM NaCl, 2 mM TCEP and 10% D2O. Spectral acquisitions for TNPO3 free and in complex with CIRBP^RSY and SRSF1^RS, respectively were performed at 298 K on a 700 MHz Bruker Avance III NMR spectrometer equipped with a TCI triple-resonance cryoprobe. The pulse program was sfhmqcf2gpph and the spectra were recorded with 32 scans, interscan delay of 1 s, 160 points in F1, 1024 points in F2, 5283.879 Hz spectral width in F1, and 11,160.714 Hz spectral width in F2. Spectra were processed using Topspin 4.1.3.
Spectral acquisitions for TNPO3 free and in complex with mCIRBP^RSY, pCIRBP^RSY, and pSRSF1^RS, respectively, were performed at 298 K on a 600 MHz Bruker Avance Neo NMR spectrometer equipped with a TXI 600S3 probehead. The pulse program was hmqcgpphwg and the spectra were recorded with 64 scans, interscan delay of 1 s, 200 points in F1, 1024 points in F2, 4545.455 Hz spectral width in F1, and 7812.500 Hz spectral width in F2. Spectra were processed using Topspin 4.3.0.
For ^1H-^15N HSQC spectra, protein samples were equilibrated in a buffer containing 50 mM Tris–HCl, pH 6.7, 150 mM NaCl, 2 mM TCEP, 0.04% NaN3, and 10% D2O (with additional 20 mM MgCl2 for CIRBP phosphorylation kinetics). Data were recorded at 298 K on the 600 MHz Bruker Avance Neo NMR spectrometer equipped with a TXI 600S3 probehead. The pulse program was hsqcetfpf3gpsi and was recorded with 8-16 scans, interscan delay of 1 s, 128 points in F1, 1024 points in F2, 1949.318 Hz spectral width in F1, and 9615.385 Hz spectral width in F2. Spectra were processed using Topspin 4.3.0.

[1] = 100 µM ligand into 10 µM TNPO3 C511A, 25 °C, 50 mM Tris–HCl, 150 mM NaCl, 2 mM TCEP, 0.04% NaN3, pH 7.5, error = SD of the fit

Row | Compound | Kd / affinity of binding to TNPO3 C511A (ITC), as given in Table 1 (TNPO3 C511A; [1]) | TNPO3 binding Kd, outcome in words (TNPO3 C511A) | line broadening of peptide 1H signals upon addition of TNPO3 (1H NMR) (TNPO3) | other results
1 | GGSYADSYDSYATHNE [CIRBP (157-172) R161A, synthetic CIRBP (157-172) peptide with point mutation R161A] | No binding | No binding | – | –
2 | C[C@H](NC(=O)[C@H](Cc1ccc(O)cc1)NC(=O)[C@H](CO)NC(=O)[C@H](CC(=O)O)NC(=O)[C@H](Cc1ccc(O)cc1)NC(=O)[C@H](CO)NC(=O)[C@H](CC(=O)O)NC(=O)[C@H](CCCNC(=N)N)NC(=O)[C@H](Cc1ccc(O)cc1)NC(=O)[C@H](CO)NC(=O)CNC(=O)CNC(=O)[C@H](CO)NC(=O)[C@H](CO)NC(=O)[C@H](CCCNC(=N)N)NC(=O)[C@H](CC(=O)O)NC(=O)[C@H](COP(=O)(O)O)NC(=O)[C@H](Cc1ccc(O)cc1)NC(=O)CNC(=O)CNC(=O)[C@H](COP(=O)(O)O)NC(=O)[C@H](CCC(N)=O)NC(=O)[C@H](COP(=O)(O)O)NC(=O)[C@H](CCCNC(=N)N)NC(=O)[C@H](CO)NC(=O)[C@H](CO)NC(=O)[C@H](Cc1ccc(O)cc1)NC(=O)[C@H](Cc1ccc(O)cc1)NC(=O)[C@H](CC(=O)O)NC(=O)[C@H](CCCNC(=N)N)NC(=O)[C@H](CO)NC(=O)CN)C(=O)N[C@H](C(=O)N[C@@H](Cc1c[nH]cn1)C(=O)N[C@@H](CC(N)=O)C(=O)N[C@@H](CCC(=O)O)C(=O)O)[C@@H](C)O [pCIRBP^RSY] (H-GSRDYYSSR[pS]Q[pS]GGY[pS]DRSSGGSYRDSYDSYATHNE-OH) | – | – | – | decrease of TNPO3 binding affinity upon SRPK1 phosphorylation (TNPO3 WT; ITC Kd 0.61 ± 0.10 versus 5.99 ± 0.96 µM): ten-fold; ΔS (TNPO3 WT; replicate 1 (rep1)): –112 cal/mol/deg; ΔS (TNPO3 WT; replicate 2 (rep2)): –50.6 cal/mol/deg; chemical shift perturbations of TNPO3 methyl groups upon ligand addition (1H,13C HMQC) (TNPO3; 100 µM [IM-methyl 13C] labeled TNPO3, one stoichiometric equivalent of ligand, 298 K, pH 6.7): shifted to comparable end points
3 | GGSYRDSYDpSYATHNE [CIRBP (157-172) S166pS, synthetic CIRBP (157-172) peptide with phosphorylated S166] | decreased binding beyond being detectable or fittable | No binding | – | –
4 | GGSYRDSYDSpYATHNE [CIRBP (157-172) Y167pY, synthetic CIRBP (157-172) peptide with phosphorylated Y167] | – | Low affinity | – | –
5 | GGSYRDSADSYATHNE [CIRBP (157-172) Y164A, synthetic CIRBP (157-172) peptide with point mutation Y164A] | No binding | No binding | – | –
6 | SRDRRFRGRYRSPYSG [RBM39] | – | – | broadened | –
7 | GGSYRDSYDSYATHNE [CIRBP (157-172) WT] | – | – | – | Kd (TNPO3 C511A; 100 µM ligand into 10 µM TNPO3 C511A, 25 °C, 50 mM Tris–HCl, 150 mM NaCl, 2 mM TCEP, 0.04% NaN3, pH 7.5, error = SD of the fit, read-out: Kd / affinity of binding to TNPO3 C511A (ITC), as given in Table 1): 5.78 ± 1.63 µM
8 | SQVYRCGFQPFNQHLLPW [P5CS] | – | – | broadened | –
9 | GGSYRDSpYDSYATHNE [CIRBP (157-172) Y164pY, synthetic CIRBP (157-172) peptide with phosphorylated Y164] | decreased binding beyond being detectable or fittable | No binding | – | –
10 | YYDYEIERFWRGGQYENFRV [ZCH18] | – | – | broadened | –

Further lines, with some results ahead:

Row | Kd / affinity of binding to TNPO3 C511A (ITC), as given in Table 1 (TNPO3 C511A; [1]) | TNPO3 binding Kd, outcome in words (TNPO3 C511A) | line broadening of peptide 1H signals upon addition of TNPO3 (1H NMR) (TNPO3) | Compound | other results
11 | – | – | broadened | PSGGSYRDSYESYGNS [RBMX/RMXL1, synthetic peptide RBMX (276–291), CIRBP-like motif] | change of peptide 1H 1D NMR signals with sub-stoichiometric TNPO3 (TNPO3; 100 µM RSY regions and 10 µM TNPO3 (peer review reply)): slight decrease of peptide signal intensity
12 | Low affinity | Low affinity | – | GGSYRDSYDSAATHNE [CIRBP (157-172) Y167A, synthetic CIRBP (157-172) peptide with point mutation Y167A] | –

— paper PMC12075686, “Structural basis of phosphorylation-independent nuclear import of CIRBP by TNPO3” (Nature Communications, 2025)
